Test results reported in patent US10626115B2, “Fused pyrimidinone and triazinone derivatives containing bridged nitrogen, their process of preparation and their therapeutic uses as antifungal and/or antiparasitic agents” (UNIVERSITE DE NANTES, priority 2015, dated 2020).
≈ marks a conversion by molar mass, not a printed value.

What was measured:
[1] = system: A. fumigatus susceptible strain ASFU76; test: Antifungal susceptibility, spectrofluorimetric microdilution, ASFU76; assay type: cell-based, Aspergillus fumigatus; settings: Aspergillus fumigatus, read-out: MIC values ASFU76
Outline: (§1)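 MIC80 by fluorescence, microdilution method, relative to control wells.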

[2] = system: fluconazole-resistant C. parapsilosis s.l. (CAPA2); test: microbe, parasite or virus in culture; assay type: cell-based; settings: Lodderomyces parapsilosis, read-out: MIC values CAPA2
Outline: (§2)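 Tested by spectrofluorimetric broth microdilution against a panel of Candida strains with differing azole susceptibility, including fluconazole-resistant C. krusei, C. parapsilosis s.l. and C. albicans isolates (CAAL117 carries erg11 mutations and is voriconazole-resistant).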

[3] = system: fluconazole-resistant C. albicans strain CAAL111 (efflux pump); test: microbe, parasite or virus in culture; assay type: cell-based; settings: Candida albicans, read-out: MIC values CAAL111
Outline: as §2

[4] = system: fluconazole-resistant C. parapsilosis s.l. (CAPA1); test: microbe, parasite or virus in culture; assay type: cell-based; settings: Lodderomyces parapsilosis, read-out: MIC values CAPA1
Outline: as §2

[5] = system: fluconazole-resistant C. krusei (CAKR8); test: microbe, parasite or virus in culture; assay type: cell-based; settings: Pichia kudriavzevii, read-out: MIC values CAKR8
Outline: as §2

[6] = system: fluconazole-resistant C. glabrata (CAGL2); test: microbe, parasite or virus in culture; assay type: cell-based; settings: Nakaseomyces glabratus, read-out: MIC values CAGL2
Outline: as §2

[7] = system: fluconazole-susceptible C. albicans strain: CAAL93; test: Antifungal susceptibility, spectrofluorimetric microdilution, CAAL93; assay type: cell-based; settings: Candida albicans, read-out: MIC values CAAL93
Outline: as §2

[8] = system: Candida albicans strain (CAAL93); test: Murine systemic candidiasis; assay type: in vivo; settings: neutropenic Swiss mice, CAAL93 i.v., 10 mg/kg per os once a day for 5 days; for survival compared with the non-treated group: 28 days (compound 51, 14 days); for fungal burden of the kidney: p<0.05 (compound 51 p<0.001)
Procedure: Transiently neutropenic female Swiss mice were used for experiments on systemic candidiasis and invasive aspergillosis.
Mice were inoculated intravenously with a Candida albicans strain (CAAL93). Treatment was administrated once a day (10 mg/kg per os) for 5 days. […] Fungal burden of the kidney was evaluated in dead animals during the experimentation or in animals sacrificed at the end of the experimentation.

[9] = system: A. fumigatus itraconazole-resistant strain ASFU77 (erg11 mutation); test: Antifungal susceptibility, spectrofluorimetric microdilution, ASFU77; assay type: cell-based, Aspergillus fumigatus; settings: for MIC: Aspergillus fumigatus, read-out: MIC values ASFU77
Outline: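 Fluorescence read-out: the MIC was taken as the concentration that suppressed 80% of the signal seen in untreated control wells, using a microdilution format.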

[10] = system: A. fumigatus susceptible strain ASFU78; test: Antifungal susceptibility, spectrofluorimetric microdilution, ASFU78; assay type: cell-based, Aspergillus fumigatus; settings: Aspergillus fumigatus, read-out: MIC values ASFU78
Outline: as §1

[11] = system: A. fumigatus susceptible strain ASFU7; test: Antifungal susceptibility, spectrofluorimetric microdilution, ASFU7; assay type: cell-based, Aspergillus fumigatus; settings: Aspergillus fumigatus, read-out: MIC values ASFU7
Outline: as §1

[12] = system: Hela Human cell line; test: Cytotoxicity on HeLa cells; assay type: cell-based; settings: 100 μM
Procedure: Hela Human cell line was used in view to evaluate cytotoxicity. It was evaluated with a spectrofluorimetric microdilution method. IC50 was the concentration that was able to inhibit 50% of fluorescence measured in the control wells.

[13] = system: A. fumigatus susceptible strain ASFU38A; test: Antifungal susceptibility, spectrofluorimetric microdilution, ASFU38A; assay type: cell-based, Aspergillus fumigatus; settings: Aspergillus fumigatus, read-out: MIC values ASFU38A
Outline: as §1

[14] = system: A. fumigatus susceptible strain ASFU35A; test: Antifungal susceptibility, spectrofluorimetric microdilution, ASFU35A; assay type: cell-based, Aspergillus fumigatus; settings: Aspergillus fumigatus, read-out: MIC values ASFU35A
Outline: as §1

[15] = system: promastigote stage of a Leishmania mexicana strain; test: Anti-Trypanosomatidae activity, promastigote stage, spectrofluorimetric microdilution; assay type: cell-based
Procedure: Compounds were evaluated on the promastigote stage of a Leishmania mexicana strain using a spectrofluorimetric microdilution method. Inhibitory concentration 50 (IC50) was the concentration that inhibited 50% of the control growth.

[16] = system: A. fumigatus itraconazole-resistant strain ASFU19; test: Antifungal susceptibility, spectrofluorimetric microdilution, ASFU19; assay type: cell-based, Aspergillus fumigatus; settings: Aspergillus fumigatus, read-out: MIC values ASFU19
Procedure: (§3) Eleven strains of A. fumigatus with various itraconazole susceptibility were used: • Five susceptible strains: ASFU7, ASFU35A, ASFU38A, ASFU76 and ASFU78. • Six itraconazole-resistant strains: ASFU77 (erg11 mutation), ASFU13, ASFU17, ASFU19, ASFU20, ASFU23.
(§4) Antifungal susceptibility was evaluated with a spectrofluorimetric microdilution method. MIC was the concentration that was able to inhibit 80% of fluorescence measured in the control wells.

[17] = system: fluconazole-resistant C. albicans strain CAAL117 (erg11 mutations+voriconazole-resistant); test: microbe, parasite or virus in culture; assay type: cell-based
Outline: as §2

[18] = system: fluconazole-resistant C. krusei (CAKR7); test: microbe, parasite or virus in culture; assay type: cell-based; settings: Pichia kudriavzevii, read-out: MIC values CAKR7
Outline: as §2

[19] = system: A. fumigatus itraconazole-resistant strain ASFU17; test: Antifungal susceptibility, spectrofluorimetric microdilution, ASFU17; assay type: cell-based, Aspergillus fumigatus; settings: Aspergillus fumigatus, read-out: MIC values ASFU17
Procedure: as §3, §4

[20] = system: CRL:(WI) rats; test: Acute oral toxicity study in rats; assay type: in vivo
Procedure: The single-dose oral toxicity of compound 51 was performed according to the acute toxic class method (OECD 423 and Commission Regulation (EC) No 440/2008 of 30 May 2008, B.1.Tris) in CRL:(WI) rats.
Two groups of three female CRL:(WI) rats were treated with the test item at a dose level of 300 mg/kg bw (Group 1 and Group 2).
A single oral treatment was carried out by gavage for each animal after an overnight food withdrawal. Food was made available again 3 hours after the treatment. The test item was administered formulated in DMSO at a concentration of 30 mg/mL at a dose volume of 10 mL/kg bw.
Initially, three females (Group 1) were treated at a dose level of 300 mg/kg bw. As no mortality was observed, a confirmatory group (Group 2) was treated at the same dose level.
Clinical observations were performed at 30 minutes, 1, 2, 3, 4 and 6 hours after dosing and daily for 14 days thereafter. Body weight was measured on days −1, 0 and 7 and before necropsy. All animals were subjected to a necropsy and a macroscopic examination

[21] = system: A. fumigatus itraconazole-resistant strain ASFU13; test: Antifungal susceptibility, spectrofluorimetric microdilution, ASFU13; assay type: cell-based, Aspergillus fumigatus
Procedure: as §3, §4

[22] = system: A. fumigatus itraconazole-resistant strain ASFU23; test: Antifungal susceptibility, spectrofluorimetric microdilution, ASFU23; assay type: cell-based, Aspergillus fumigatus
Procedure: as §3, §4

[23] = system: A. fumigatus itraconazole-resistant strain ASFU20; test: Antifungal susceptibility, spectrofluorimetric microdilution, ASFU20; assay type: cell-based, Aspergillus fumigatus
Procedure: as §3, §4

| Compound | MIC [1] | MIC [3] | MIC [5] | MIC [6] | MIC [7] | survival compared with the non-treated group ([8]; p<0.05) | fungal burden of the kidney [8] | MIC [9] | MIC [10] | MIC [11] | cytotoxic effect at the higher concentration used [12] | MIC [13] | MIC [14] | also measured |
| --- | --- | --- | --- | --- | --- | --- | --- | --- | --- | --- | --- | --- | --- | --- |
| C[C@@H](n1ccc2nc(-c3ccc([N+](=O)[O-])cc3)cn2c1=O)[C@](O)(Cn1cncn1)c1ccc(F)cc1F [Compound 35, 6-[(1R,2R)-2-(2,4-Difluorophenyl)-2-hydroxy-1-methyl-3-(1H-1,2,4-triazol-1-yl)propyl]-2-(4-nitrophenyl)imidazo[1,2-c]pyrimidin-5-one] | 7.45 ± 1 µg/mL (≈ 14.7 µM) | 0.007 ± 0.003 µg/mL (≈ 0.0138 µM) | 0.07 ± 0.01 µg/mL (≈ 0.138 µM) | 0.2 ± 0.06 µg/mL (≈ 0.394 µM) | < 0.001 µg/mL | significant longer survival | significantly decreased | 62.2 ± 2.92 µg/mL (≈ 123 µM) | 6.19 ± 0.8 µg/mL (≈ 12.2 µM) | 2.52 ± 0.05 µg/mL (≈ 4.97 µM) | didn't show any cytotoxic effect | 25.6 ± 24.8 µg/mL (≈ 50.5 µM) | 6.71 ± 0.06 µg/mL (≈ 13.2 µM) | MIC [2]: 0.004 ± 0.003 µg/mL (≈ 0.00788 µM); MIC [4]: 0.011 ± 0.003 µg/mL (≈ 0.0217 µM); survival efficiency compared with FLC [8]: significantly more efficient than FLC; activity on fungal burden of the kidney compared to FLC ([8]; p<0.05): significantly higher when compared to FLC; effectiveness against the promastigote stage of L. Mexicana, in words [15]: effective; IC50 ([15]; Leishmania mexicana, promastigote stage, 50% of control growth, read-out: L. mexicana (IC50 μM)): 11.4 ± 1.5 µM |
| COc1ccc(-c2cc3cnn([C@H](C)[C@](O)(Cn4cncn4)c4ccc(F)cc4F)c(=O)n3c2)cc1 [Compound 51, 3-[(1R,2R)-2-(2,4-Difluorophenyl)-2-hydroxy-1-methyl-3-(1,2,4-triazol-1-yl)propyl]-7-(4-methoxyphenyl)-3H-pyrrolo[1,2-d][1,2,4]triazin-4-one] | 6.52 ± 0.16 µg/mL (≈ 13.2 µM) | < 0.001 µg/mL | 0.081 ± 0.009 µg/mL (≈ 0.164 µM) | 0.017 ± 0.003 µg/mL (≈ 0.0345 µM) | < 0.001 µg/mL | significant longer survival | most active | 6.6 ± 0.24 µg/mL (≈ 13.4 µM) | 6.01 ± 0.48 µg/mL (≈ 12.2 µM) | 2.21 ± 0.09 µg/mL (≈ 4.49 µM) | didn't show any cytotoxic effect | 5.84 ± 0.2 µg/mL (≈ 11.9 µM) | 6.08 ± 0.29 µg/mL (≈ 12.3 µM) | MIC [16]: > 49 µg/mL; MIC ([17]; Candida albicans, read-out: MIC values CAAL117): 0.018 ± 0.002 µg/mL (≈ 0.0365 µM); fold more active than voriconazole against CAAL117 ([17]; compared with voriconazole): 100 fold; MIC [18]: 0.062 ± 0.032 µg/mL (≈ 0.126 µM); MIC values against ITRA-resistant isolate carrying M220T mutation (ASFU77), in words [9]: in the micromolar range; MIC [19]: > 49 µg/mL; acute oral LD50 ([20]; female CRL:(WI) rats, single oral gavage): above 300 mg/kg bw; GHS ranking for acute oral exposure ([20]; female, CRL:(WI), rat, in vivo, po, 14 days): Category 4; body weight gains ([20]; rat, in vivo, po, 300 mg/kg): no indication of a test item-related effect; clinical observations ([20]; rat, in vivo, po, 300 mg/kg): hunched back and slightly decreased activity; mortality ([20]; rat, in vivo, po, 300 mg/kg): did not cause mortality; activity against ITRA-resistant isolate ASFU13, in words [21]: active; MIC ([21]; Aspergillus fumigatus, read-out: MIC values ASFU13): 2.03 µg/mL (≈ 4.12 µM); activity against ITRA-resistant isolate ASFU23, in words [22]: active; MIC ([22]; Aspergillus fumigatus, read-out: MIC values ASFU23): 1.92 µg/mL (≈ 3.9 µM); activity against ITRA-resistant isolate ASFU20, in words [23]: active; MIC ([23]; Aspergillus fumigatus, read-out: MIC values ASFU20): 3.14 µg/mL (≈ 6.38 µM) |
